Results from patent US7276603B2, “Benzofuranyl-and benzothienyl-piperazinyl quinolines and methods of their use” (Wyeth, priority 2003, dated 2007).
Structures can show the parent of a compound that is named as a salt.

Key:
5-HT transporter = 5-HT transporter (Rattus norvegicus, UniProt P31652); test: Rat Brain 3H-Paroxetine Binding Assay (RB 5HT Transporter); conditions: rat frontal cortical membranes; 3H-paroxetine 0.1 nM, 60 min, 25° C.
From the text: Rat Brain ^3H-Paroxetine Binding Assay (RB 5HT Transporter):
This assay was used to determine a compound's affinity of the 5-HT transporter.
All reactions were terminated by the addition of ice cold Tris buffer followed by rapid filtration using a Tom Tech filtration device to separate bound from free ^3H-paroxetine.

human 5-HT1A receptors = target: T1, human 5-HT1A receptors (Homo sapiens, UniProt P08908); test: displacement of [3H] 8-OH-DPAT from the 5-HT1A serotonin receptor; type: binding; conditions: CHO cells stably transfected with human 5-HT1A receptors
T1 construct: expressed in transfected cells; host or cells: CHO cells
T1 sequence (P08908 1-422): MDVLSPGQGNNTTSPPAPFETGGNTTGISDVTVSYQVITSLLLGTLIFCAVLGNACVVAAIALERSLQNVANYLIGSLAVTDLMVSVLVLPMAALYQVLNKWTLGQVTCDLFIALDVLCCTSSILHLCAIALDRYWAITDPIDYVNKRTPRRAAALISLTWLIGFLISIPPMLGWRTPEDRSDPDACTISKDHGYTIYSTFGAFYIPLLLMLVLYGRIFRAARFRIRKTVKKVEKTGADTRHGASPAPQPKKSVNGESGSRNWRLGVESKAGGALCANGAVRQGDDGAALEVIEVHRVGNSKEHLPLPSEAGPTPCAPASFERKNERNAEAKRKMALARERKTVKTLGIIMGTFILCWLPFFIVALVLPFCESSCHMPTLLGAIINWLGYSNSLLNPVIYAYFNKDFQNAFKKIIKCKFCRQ

5-HT transporter, sequence (P31652 whole entry): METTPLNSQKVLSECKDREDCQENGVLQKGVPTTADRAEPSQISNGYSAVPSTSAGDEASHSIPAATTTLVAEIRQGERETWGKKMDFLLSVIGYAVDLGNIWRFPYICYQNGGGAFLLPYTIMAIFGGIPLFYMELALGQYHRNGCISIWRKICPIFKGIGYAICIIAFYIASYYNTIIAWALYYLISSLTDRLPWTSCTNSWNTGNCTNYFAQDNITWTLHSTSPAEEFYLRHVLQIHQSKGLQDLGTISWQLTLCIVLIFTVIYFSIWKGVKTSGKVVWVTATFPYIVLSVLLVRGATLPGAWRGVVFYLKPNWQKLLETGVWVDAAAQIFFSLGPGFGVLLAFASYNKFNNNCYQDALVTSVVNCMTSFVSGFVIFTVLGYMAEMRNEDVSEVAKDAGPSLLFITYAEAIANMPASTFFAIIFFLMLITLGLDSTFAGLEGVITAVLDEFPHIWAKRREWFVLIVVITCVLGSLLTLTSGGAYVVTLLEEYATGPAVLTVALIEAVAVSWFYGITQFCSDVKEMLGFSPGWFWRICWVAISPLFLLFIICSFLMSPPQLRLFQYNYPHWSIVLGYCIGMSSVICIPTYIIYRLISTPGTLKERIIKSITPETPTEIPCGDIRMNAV

With `Fc1cc(N2CCN(CCc3coc4ccc(F)cc34)CC2)c2ncccc2c1` (as salt: HCl) [Compound 17, 8-{4-[2-(5-fluoro-1-benzofuran-3-yl)ethyl]-1-piperazinyl}-6-fluoro-quinoline] as the compound, how does the melting point read?
The melting point was 55 °C.

For `COc1cccc2c(C(C)CN3CCN(c4cc(Cl)cc5cccnc45)CC3)coc12` (stereo not drawn) (as salt: HCl) [Compound 33, 8-{4-[2-(7-methoxy-1-benzofuran-3-yl)propyl]-1-piperazinyl}-6-chloro-quinoline], which melting point is on record?
The melting point was 55 to 58 °C.

For `COc1cccc2c(CCN3CCN(c4cc(Cl)cc5cccnc45)CC3)coc12` (as salt: HCl) [Compound 20, 8-{4-[2-(7-methoxy-1-benzofuran-3-yl)ethyl]-1-piperazinyl}-6-chloro-quinoline], which melting point is on record?
The melting point was 248 °C.

For `COc1cccc2c(C(C)CN3CCN(c4cccc5cccnc45)CC3)coc12` (stereo not drawn) (as salt: HCl) [Compound 31, 8-{4-[2-(7-methoxy-1-benzofuran-3-yl)propyl]-1-piperazinyl}quinoline], which melting point is on record?
The melting point was 192 °C.

For `COc1cc(N2CCN(CCc3coc4ccc(F)cc34)CC2)c2ncccc2c1` (as salt: HCl) [Compound 16, 8-{4-[2-(5-fluoro-1-benzofuran-3-yl)ethyl]-1-piperazinyl}-6-methoxy-quinoline], which melting point is on record?
The melting point was 80 °C.

For `Fc1ccc2scc([C@H]3CC[C@H](N4CCN(c5ccc(Cl)c6cccnc56)CC4)CC3)c2c1` [Compound 52, 5-chloro-8-{4-[4-trans(5-fluoro-1-benzothien-3-yl)cyclohexyl]piperazin-1-yl}quinoline], which melting point is on record?
The melting point was 195 to 197 °C.

And the Ki (5-HT transporter)?
Its Ki is 0.048 µM.

Which Ki (human 5-HT1A receptors) does the source give for `COc1cc(N2CCN([C@H]3CC[C@H](c4cc5ccccc5s4)CC3)CC2)c2ncccc2c1` [Compound 71] here?
Its Ki is 0.162 µM.

And the melting point?
The melting point was 193 to 194 °C.

With `COc1ccc2c(CCN3CCN(c4cc(Cl)cc5cccnc45)CC3)coc2c1` [Compound 11, 8-{4-[2-(6-methoxy-1-benzofuran-3-yl)ethyl]-1-piperazinyl}-6-chloro-quinoline] as the compound, how does the Ki (human 5-HT1A receptors) read?
Its Ki is 0.00081 µM.

And the Ki (5-HT transporter)?
The Ki was 0.037 µM.

For `COc1cc(N2CCN([C@H]3CC[C@@H](c4csc5ccc(F)cc54)CC3)CC2)c2ncccc2c1` [Compound 49, 6-methoxy-8-{4-[4-cis(5-fluoro-1-benzothien-3-yl)cyclohexyl]piperazin-1-yl}quinoline], which Ki (human 5-HT1A receptors) is on record?
The Ki was 0.00137 µM.

What about the Ki (5-HT transporter) of the same compound?
The Ki was 0.092 µM.

For `Clc1ccc2c(CCN3CCN(c4cccc5cccnc45)CC3)coc2c1` [Compound 5, 8-{4-[2-(6-chloro-1-benzofuran-3-yl)ethyl]-1-piperazinyl}-quinoline], which Ki (human 5-HT1A receptors) is on record?
Its Ki is 0.00073 µM.

And the Ki (5-HT transporter)?
Its Ki is 0.031 µM.

What does the source list for `COc1ccc2occ(CCN3CCN(c4cc(F)cc5cccnc45)CC3)c2c1` [Compound 26, 8-{4-[2-(5-methoxy-1-benzofuran-3-yl)ethyl]-1-piperazinyl}-6-fluoro-quinoline]?
Ki (human 5-HT1A receptors): 0.0144 µM; Ki (5-HT transporter): 0.0165 µM

With `COc1cc(N2CCN(CCc3coc4ccccc34)CC2)c2ncccc2c1` [Compound 4, 8-{4-[2-(1-benzofuran-3-yl)ethyl]-1-piperazinyl}-6-methoxyquinoline] as the compound, how does the Ki (human 5-HT1A receptors) read?
Its Ki is 0.00248 µM.

What about the Ki (5-HT transporter) of the same compound?
Its Ki is 0.06 µM.

Which Ki (human 5-HT1A receptors) does the source give for `Clc1ccc2occ(CCN3CCN(c4cccc5cccnc45)CC3)c2c1` [Compound 12, 8-{4-[2-(5-chloro-1-benzofuran-3-yl)ethyl]-1-piperazinyl}-quinoline] here?
Its Ki is 0.00292 µM.

And the Ki (5-HT transporter)?
Its Ki is 0.011 µM.

For `COc1ccc2occ(CCN3CCN(c4cc(C)cc5cccnc45)CC3)c2c1` [Compound 23, 8-{4-[2-(5-methoxy-1-benzofuran-3-yl)ethyl]-1-piperazinyl}-6-methyl-quinoline], which Ki (human 5-HT1A receptors) is on record?
Its Ki is 0.02 µM.

What about the Ki (5-HT transporter) of the same compound?
Its Ki is 0.0285 µM.

With `COc1cccc2c1occ2[C@H]1CC[C@H](N2CCN(c3ccc(Cl)c4cccnc34)CC2)CC1` [Compound 64, 5-chloro-8-{4-[4-trans(7-methoxy-1-benzofuran-3-yl)cyclohexyl]piperazin-1-yl}quinoline] as the compound, how does the Ki (human 5-HT1A receptors) read?
The Ki was 0.0187 µM.

What about the Ki (5-HT transporter) of the same compound?
Its Ki is 0.049 µM.

Which results are given for `Cc1cc(N2CCN(CCc3coc4ccc(Cl)cc34)CC2)c2ncccc2c1` [Compound 14, 8-{4-[2-(5-chloro-1-benzofuran-3-yl)ethyl]-1-piperazinyl}-6-methyl-quinoline]?
Ki (human 5-HT1A receptors): 0.0135 µM; Ki (5-HT transporter): 0.045 µM
